Values quoted from earlier work in US20080318218A1, “Compositions and Methods for Inferring an Adverse Effect in Response to a Drug Treatment” (DNAPrint Genomics, Inc., priority 2004, published 2008).

Key:
[1] = human, in vivo
[2] = clinical trials
NO synthase = details: ACE inhibitor-associated cough; P<0.01; not with placebo

For `CC(C)c1c(C(=O)Nc2ccccc2)c(-c2ccccc2)c(-c2ccc(F)cc2)n1CC[C@@H](O)C[C@@H](O)CC(=O)O` [Atorvastatin], the “patients exhibiting persistent and dose-dependent indications of hepatic stress (elevation in serum transaminase SGOT, ALTGPT)” value [1] is given as “Approximately 0.7%”.
For `COCc1c(C(C)C)nc(C(C)C)c(/C=C/[C@@H](O)C[C@@H](O)CC(=O)O)c1-c1ccc(F)cc1` [Baycol, Cerivastatin], the “patients experiencing muscle discomfort and/or creatine kinase elevations in response to treatment” value [2] is listed as “about 1%”.
In the case of `[Fe]` [iron], the cough scores (NO synthase) is listed as “significant reduction”.
